Entries after “also recorded” stand apart in the source; their conditions may differ.
Tests used:
[1] = system: corpus callosum mature OLs (CC1) and MBP; assay: CC1 mature OLs and MBP immunoreactivity in callosal white matter tracts of EAE mice; assay type: in vivo, mouse; set-up: key to Myelination: OLs / Myelination: MBP: ‘+’ indicate marker was significantly (p ≤ 0.05) increased in treatment group relative to vehicle; ‘−’ indicates marker was significantly (p ≤ 0.05) decreased in treatment group relative to vehicle; ○: ‘o’ indicate marker did not change relative to vehicle; settings: vs vehicle; for CC1+ mature OL numbers, corpus callosum / MBP+ staining, corpus callosum: therapeutic treatment (postEAE)
Text: Immunohistochemistry: Before histological staining, 40-μm free floating sections were thoroughly washed with PBS to remove residual sodium azide (Crawford et al., 2010). Sections were permeabilized with 0.3% Triton X-100 in ix PBS and 15% normal goat serum (NGS). Myelination, gliosis and immune markers were visualized by the following primary antibodies at a concentration of 1:500 unless otherwise noted: chicken anti-myelin basic protein (MBP; polyclonal, EMD Millipore, Darmstadt, Germany), chicken anti-glial fibrillary acidic protein (GFAP; EMD Millipore, Darmstadt), rat anti-cluster of differentiation 45 (CD45; clone 30-F11, BD Biosciences, San Diego, Calif.), mouse anti-ionized calcium-binding adapter molecule 1/allograft inflammatory factor-1 (Iba1/AIF1; clone 20A12.1, EMD Millipore, Darmstadt, Germany), goat anti-CXCL1 (R&D systems; Minneapolis, Minn.) at 1:250 and mouse anti-adenomatous polyposis coli (CC-1; clone CC-1, Genetex, Irvine, Calif.). Secondary staining was performed using polyclonal fluorophore-conjugated antibodies from ThermoFisher Scientific at a concentration of 1:500 unless otherwise specified: goat anti-chicken Alexa Fluor® 555 (AF555), goat anti-rabbit Alexa Fluor® 647 (AF647), donkey anti-chicken IgY Cy3 (EMD Millipore), goat anti-rat IgG AF647, goat anti-rabbit IgG Cy3 (EMD Millipore), goat anti-mouse IgG2b AF647 and rabbit anti-goat AF647. Nuclei were counter stained with 4′,6-Diamidino-2-phenylindole (DAPI, 2 ng/ml; Molecular Probes) for 10 minutes after incubation with secondary antibodies, and sections were mounted on glass slides, allowed to dry, and coverslipped with Fluoromount G mounting medium (Thermo Fisher Scientific) for imaging.
Confocal Microscopy: Thoracic spinal cord dorsal and ventral column sections, as well as CC were imaged using an Olympus BX61 confocal microscope (Olympus America Inc., Center Valley, Pa.) using a 10× and 40× objective. Z-stack projections were compiled using SlideBook 6 software (Intelligent Imaging Innovations, Inc., Denver, Colo.). Immunostaining was quantified using unbiased stereology (Crawford et al., 2010). All images (RGB) were Confocal converted to grayscale, split, and separated by color channel using imageJ version 2.2.0-rc-46/1.50 g (NIH). To avoid experimenter bias, auto-adjustment of brightness and contrast, as well as threshold of staining signal, was carried out by ImageJ. MBP^+, GFAP^+, CD45^+, Iba1^+, CC1^+, and CXCL1^+, staining intensity was measured as percent area of positive immunoreactivity within the region of interest and intensity of signal determined by ImageJ.
To test whether IndCl analogues promote similar gains in mature OL numbers and myelination, callosal white matter tracts were assessed for adenomatous polyposis coli (CC1) and MBP immunoreactivity, respectively. Additionally, ultrastructural analysis of the CC was performed by EM imaging to confirm the integrity of axon myelination.

[2] = system: corpus callosum axons; assay: Electron microscopy g-ratio of corpus callosum axons of EAE mice; assay type: in vivo, mouse; set-up: key to Myelination: g-ratio: ‘+’ indicate marker was significantly (p ≤ 0.05) increased in treatment group relative to vehicle; ‘−’ indicates marker was significantly (p ≤ 0.05) decreased in treatment group relative to vehicle; ○: ‘o’ indicate marker did not change relative to vehicle; settings: vs vehicle; for Myelination: g-ratio: Post (therapeutic, postEAE) treatment of EAE mice
Procedure: Transmission Electron Microscopy: Mice were perfused with PBS as above followed by paraformaldehyde/glutaraldehyde to preserve ultrastructure and Epon embedded as previously described (Crawford et al., 2010). Serial ultrathin sections of Epon-embedded CC were stained with uranyl acetate-lead citrate were used for electron microscopy analysis (19). G-ratio was measured using Fiji v1.0 Software (NIH).
EM analysis (FIGS. 8A and 8B): Within a given field imaged, g-ratios were calculated by comparing mean ratio of inner axonal diameter to total outer diameter for all myelinated and non-myelinated fibers. […] Treatment with IndCl or either analogue decreased both non-myelinated axons numbers and g-ratio relative to vehicle.

[3] = system: EAE mice; assay: Rotarod behavioral assay in EAE mice; assay type: in vivo, mouse; set-up: key to Disability: Rotarod performance: ‘+’ indicate marker was significantly (p ≤ 0.05) increased in treatment group relative to vehicle; ‘−’ indicates marker was significantly (p ≤ 0.05) decreased in treatment group relative to vehicle; ○: ‘o’ indicate marker did not change relative to vehicle; settings: for Disability: Rotarod performance: vs vehicle; for rotarod performance (motor function): therapeutic s.c. from day 8 (postEAE)
Procedure: Rotarod behavioral assay: Motor behavior was tested up to two times per week for each mouse using a rotarod apparatus (Med Associates, Inc., St. Albans, Vt.). Briefly, animals were placed on a rotating horizontal cylinder for a maximum of 200 seconds. The amount of time the mouse remained walking on the cylinder without falling was recorded. Each mouse was tested on a speed of 3-30 rpm and given three trials for any given day. The three trials were averaged to report a single value for an individual mouse, and averages were then calculated for all animals within a given treatment group (Moore et al., 2014). The first two trial days prior to immunization served as practice trials.
As a complementary assay of motor function, mice were tested on a rotarod device following a previously described protocol (Moore et al., 2014). […] (FIG. 2B).

[4] = target: T1, ERα (Homo sapiens, UniProt P03372); assay: Relative binding affinity (RBA) to estrogen receptor alpha, radiometric measurement; settings: relative value to 100% for E2 by radiometric measurement
T1 sequence (P03372 1-595): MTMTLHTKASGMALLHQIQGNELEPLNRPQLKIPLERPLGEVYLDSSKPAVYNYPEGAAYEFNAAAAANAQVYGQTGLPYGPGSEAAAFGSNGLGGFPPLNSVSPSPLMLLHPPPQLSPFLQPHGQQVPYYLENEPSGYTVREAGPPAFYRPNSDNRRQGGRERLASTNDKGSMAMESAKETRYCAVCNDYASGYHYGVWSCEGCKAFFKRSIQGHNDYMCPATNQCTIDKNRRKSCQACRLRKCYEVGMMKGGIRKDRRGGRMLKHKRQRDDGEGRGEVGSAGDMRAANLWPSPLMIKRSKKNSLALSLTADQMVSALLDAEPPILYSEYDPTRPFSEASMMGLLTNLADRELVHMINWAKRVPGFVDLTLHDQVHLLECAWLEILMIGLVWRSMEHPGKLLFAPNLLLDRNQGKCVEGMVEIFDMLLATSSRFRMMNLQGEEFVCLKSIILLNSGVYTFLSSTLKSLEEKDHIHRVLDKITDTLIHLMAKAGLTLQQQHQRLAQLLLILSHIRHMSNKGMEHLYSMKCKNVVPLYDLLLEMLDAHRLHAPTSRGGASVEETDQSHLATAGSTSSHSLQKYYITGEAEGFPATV

[5] = Post (therapeutic, postEAE) treatment of EAE mice
[6] = Pre (prophylactic, preEAE) E2 treatment of EAE mice

Which “Myelination: MBP” value [1, 5] does the source give for `Cc1cc(O)ccc1-n1nc2ccc(O)cc2c1Cl` [IndCl-o-Me, 3-chloro-2-(4-hydroxy-2-methylphenyl)-2H-indazol-5-ol] here?
Its value is “+”.

And the “Myelination: OLs” value [1, 5]?
Its value is “+”.

And the “CC1+ mature OL numbers, corpus callosum” value [1]?
The value was “significant increase”.

What about the “MBP+ staining, corpus callosum” value [1] of the same compound?
Its value is “increased MBP+ staining”.

What about the “Myelination: g-ratio” value [2] of the same compound?
The value was “−”.

What about the “Disability: Rotarod performance” value [3, 5] of the same compound?
The value was “+”.

What about the “rotarod performance (motor function)” value [3] of the same compound?
The value was “improved rotarod performance; also recorded: greatest improvement in motor function”.

And the “RBA ERα” value [4]?
The value was 0.43%.

For `Oc1ccc(-n2nc3ccc(O)cc3c2Cl)cc1` [IndCl, chloroindazole], which “Myelination: MBP” value [1, 5] is on record?
The value was “+”.

What about the “Myelination: OLs” value [1, 5] of the same compound?
Its value is “+”.

What about the “CC1+ mature OL numbers, corpus callosum” value [1] of the same compound?
The value was “significant increase; also recorded: rescued the loss of CC1+ cells”.

What about the “MBP+ staining, corpus callosum” value [1] of the same compound?
Its value is “increased MBP+ staining”.

What about the “Myelination: g-ratio” value [2] of the same compound?
Its value is “−”.

And the “g-ratio of callosal axons” value ([2]; therapeutic treatment (postEAE))?
The value was “decreased”.

And the “Disability: Rotarod performance” value [3, 5]?
The value was “○”.

And the “rotarod performance (motor function)” value [3]?
The value was “had a tendency to fall from the cylinder abruptly”.

And the “RBA ERα” value [4]?
Its value is 0.03%.

For `Oc1ccc(-n2nc3ccc(O)cc3c2Cl)c(Cl)c1` [IndCl-o-Cl, 3-chloro-2-(2-chloro-4-hydroxyphenyl)-2H-indazol-5-ol], which “Myelination: MBP” value [1, 5] is on record?
The value was “+”.

And the “Myelination: OLs” value [1, 5]?
The value was “+”.

And the “CC1+ mature OL numbers, corpus callosum” value [1]?
The value was “significant increase”.

What about the “MBP+ staining, corpus callosum” value [1] of the same compound?
Its value is “increased MBP+ staining”.

What about the “Myelination: g-ratio” value [2] of the same compound?
The value was “−”.

What about the “Disability: Rotarod performance” value [3, 5] of the same compound?
Its value is “+”.

What about the “rotarod performance (motor function)” value [3] of the same compound?
Its value is “increase of EAE mice remaining on the rotarod; also recorded: improved rotarod performance”.

What about the “RBA ERα” value [4] of the same compound?
Its value is 0.40%.

For `C[C@]12CC[C@@H]3c4ccc(O)cc4CC[C@H]3[C@@H]1CC[C@@H]2O` [E2, 170 estradiol], which “Myelination: MBP” value [1, 5] is on record?
Its value is “○”.

What about the “Myelination: OLs” value [1, 5] of the same compound?
Its value is “+”.

What about the “Myelination: MBP” value [1, 6] of the same compound?
The value was “+”.

What about the “Myelination: OLs” value [1, 6] of the same compound?
The value was “+”.

And the “Disability: Rotarod performance” value [3, 5]?
Its value is “○”.

What about the “Disability: Rotarod performance” value [3, 6] of the same compound?
The value was “+”.

— patent publication US11673866B2, “Estrogen receptor beta ligands for the prevention and treatment of multiple sclerosis (MS) and other demyelinating, inflammatory and neurodegenerative diseases” (The Board of Trustees of the University of Illinois, priority 2018, dated 2023)
